# US10401793B2, “Digital holographic method of measuring cellular activity and measuring apparatus with improved stability” (PURDUE RESEARCH FOUNDATION, priority 2010, dated 2019)
# Entries after “also recorded” stand apart in the source; their conditions may differ. Like-named read-outs stand apart in the source and are kept apart here.
# What was measured:
# Type in all cases: cell-based
# [1] = test system: Rat osteogenic sarcoma tumor spheroids; assay: Speckle fluctuation spectroscopy: differential spectrograms (normalized spectral difference) of living tumor spheroids by coherence-gated digital holography
# Description: The set-up includes several mirrors M; a neutral density filter ND, two polarizing beam splitters PBS, a beam splitter BS, three lenses L1-L3, a half-wave plate λ/2, a quarter-wave plate λ/4, a Fourier plane FP, and a sample or target T. A mode-locked Ti:sapphire laser (100 fs pulse duration, 100 MHz repetition rate) was used with a center wavelength of 840 nm and a bandwidth of 17 nm. The lenses L1 and L2 expanded a reference beam, and the lens L3 performed the Fourier transform of the object beam. The CCD camera was placed at the Fourier plane of the object, where the object beam interfered with the zero-path-matched reference beam that passed through the computer-controlled delay line. The typical object intensity for living tissue at the object plane was 5 mW/mm^2, and an 8-bit CCD camera with one mega-pixel resolution was used with an exposure time of 10 msec. Digital holograms were reconstructed by Fast Fourier transform (FFT).
# Rat osteogenic sarcoma tumor spheroids were used as the target tissue samples. Multicellular tumor spheroids have approximately spherical geometry that facilitates comparison of structure to function. As tumor spheroids are cultured in a rotating bioreactor, they undergo cell apoptosis or necrosis in their center and so consist of an inner necrotic core surrounded by an outer proliferating shell with a 100 to 200 μm thickness. A typical pseudo B-scan image is shown in FIG. 20, which is produced from 3D holographic images of an 800-μm-diameter rat tumor spheroid.
# To capture dynamic speckle, 200 successive digital holograms were acquired at a fixed depth shown as a dashed line in FIG. 20. The time interval between holograms was selected to be 0.1 second. Examples of dynamic speckle are shown in FIG. 21A for a healthy rat tumor spheroid with a 600 μm diameter. […] The horizontal axis is the spatial axis and time is vertical. […] A “healthy” tumor is one that has been removed from the bioreactor and maintained in growth medium at room temperature for no more than 24 hours.
# For tissue responding to stimuli, such as temperature and osmolarity changes or response to drugs, the key property of the spectral power density is its relative change in response to the stimulus. The normalized spectral difference for a time series is given by
# [formula] where S0 (ω,t 0) is the starting spectral power density at the beginning time t0 of the experiment, and S(ω, t) is the time development of the spectral power density. The normalized power spectrum as a function of frequency of a 450-μm-diameter tumor responding to a dose of 1 μg/ml of nocodazole, an anti-tubulin cytoskeletal drug, is shown in FIG. 21C at selected times after the application of the drug. The associated normalized differential relative spectral change is shown in FIG. 21D as a function of time for the selected frequencies.
# The tissue response contained in D(ω, t) can be represented as a spectrogram, showing the relative change in the spectrum as a function of time. These spectrograms track the changes of the intra-cellular motion in living tumors responding to temperature changes, osmolarity changes, and to nocodazole. The spectral difference in response to changes in temperature is shown in FIG. 22A as the temperature increased from 24° C. to 37° C. and then decreased to 24° C. The lower frequencies show weak suppression with increasing temperature, while the upper frequencies show significant enhancement at the highest temperature.
# The drug-response spectrograms are defined by the differential relative spectral density as D(ω, t)=[S(ω, t)−S(ω, t0)]/S (ω, t0) where the spectrum at time t is related to and normalized by the spectrum at time to before the application of the perturbation or dose. The normalization is essential, because the spectral power density has general 1/f behavior, and the high frequency amplitudes are much smaller than the low frequency amplitudes. […]
# tumor spheroids = assay: Motility contrast imaging (motility metric, dynamic speckle) of tumor spheroids; details: for dose-response plotted as a reaction velocity (suppression of cellular motion): FIG. 13D, comparison of Nocodazole, Colchicine, Taxol
# Experimental: To create tumor spheroids for our studies, two different cell lines were used: rat osteogenic sarcoma UMR-106 cells, and human liver carcinoma Hep G2 cells. These were cultured in a rotating bioreactor (Synthecon, Houston, Tex.) where they were maintained in suspension. The spheroids may be grown up to a mm in diameter. An advantage to using this continuous culture model is that fresh spheroids of varying size are easily prepared on a daily basis.
# Motility contrast imaging relies on dynamic light scattering combined with coherence gating. […] The data are the reconstructed pixel intensities plotted on a dB reflectance scale. The tumor in FIG. 9A was “healthy” while the tumor in FIG. 9B had been crosslinked with glutaraldehyde. […] The vertical axis is frame number at a rate of one frame per second.
# Among the several possible ways to define a motility metric, one particularly robust approach simply calculates the coefficient of variance (known as the CV or as the normalized standard deviation) of a pixel value (after background subtraction) as a property related to the cellular and subcellular motion. The motility metric for individual pixels is plotted in FIG. 11 at nine selected depths inside a healthy tumor. The depths starting in the upper-left are 60 μm, 120 μm, 180 μm, 260 μm, 330 μm, 390 μm, 460 μm, 530 μm and 600 μm, respectively. The first frame is near the top of the tumor, while the central frame is near the center plane of the tumor. In the central plane there is a strong contrast between the healthy shell and necrotic core. […] These images correlate with the known structure of the tumor spheroids with a healthy outer shell and a necrotic core. In these images, the internal motions of the cells themselves have provided the imaging contrast agent. This is a truly endogenous functional imaging approach (i.e. without additional labeling or contrast agents).
# Armed with the motility metric and the maps of cellular motion, it is possible to image the effects of anti-mitotic drugs (AMD) on the motility images. A time series at a fixed depth is shown in FIG. 12 for Nocodazole, which is an antimitotic drug (AMD) that inhibits the polymerization of tubulin into microtubules. The first frame is the initial state of the tumor. […] Nocodazole inhibits the polymerization of the microtubules, while treadmilling dissolves the microtubules from the other end, resulting in a significant reduction in the microtubule density within the cells. Without the microtubule cytoskeleton, organelle transport is suppressed, which is captured by the dynamic light scattering.
# [2] = test system: tumor spheroid (healthy shell and necrotic core); assay: Heterodyne autocorrelation function of depth-gated speckle (correlation time, NSD) of a tumor spheroid; details: 10 minutes after 10 μg/ml cytochalasin D
# Description: In living tissue, the speckle is dynamic, caused by motion of cellular membranes and by intracellular organelles, coupled with the optical channel cross-talk caused by multiple scattering. […] We previously studied the effects of anti-mitotic drugs on tumor spheroids using optical coherence imaging, and defined motility metrics from the autocorrelation functions of the depth-gated pixel fluctuations. The resulting motility contrast imaging (MCI) is fully endogenous, responding to the dynamic functions of cellular processes. The autocorrelation function is a first-order heterodyne function because the holography uses a reference wave (the coherence gate) that captures the real and imaginary part of the fluctuating field as the coherence-gated pixel number Id^(1) (t) to yield the autocorrelation function A^(1)(τ)= ? id^(1)(0)id^(1)(τ) ? ∝ILO^2+2ILORE {I^(1)(τ)} where τ is the time delay among an ensemble of images, and I^(1), (τ) is the heterodyne correlation function. Two motility metrics can be defined from the heterodyne correlation function. They are the decay time, and the normalized standard deviation, given by
# An ensemble consists of 40 images taken with a frame rate of 1 per second. […] […].
smiles,measurement,setting,value
COc1cc2c(c(OC)c1OC)-c1ccc(OC)c(=O)cc1[C@@H](NC(C)=O)CC2 [Colchicine],"high-frequency organelle activity, core-shell comparison",[1],appears only in the healthy shell and not in the core
same,spectrogram fingerprint,[1],significant enhancement of lower frequencies
COC(=O)Nc1nc2ccc(C(=O)c3cccs3)cc2[nH]1 [Nocodazole],"motility (activity) of the outer shell, motility maps","tumor spheroids; 2 μg/ml Nocodazole, 3 minutes after application, fixed depth",increased its activity by a small amount
same,"motility (motion) of the outer shell, motility maps","tumor spheroids; 2 μg/ml Nocodazole, 21 minutes",partially suppressed
same,"motility (motion) of the outer shell, motility maps","tumor spheroids; 2 μg/ml Nocodazole, 50 minutes",further suppressed
same,"motility (motion) of the outer shell, motility maps","tumor spheroids; 2 μg/ml Nocodazole, 79 minutes",further suppressed
same,"motility in the outer shell, motility maps","tumor spheroids; 2 μg/ml Nocodazole, 119 minutes after application",significantly reduced
same,dose-response plotted as a reaction velocity (suppression of cellular motion),tumor spheroids,strongest suppression of cellular motion at the lowest effective concentrations
same,"normalized spectral difference, middle frequency range between 0.02 Hz to 1 Hz",[1]; 1 μg/ml nocodazole,very strong suppression in motion
same,"normalized spectral difference, ultra-low frequency below 0.01 Hz",[1]; 1 μg/ml nocodazole,enhancement
same,normalized differential relative spectral change as a function of time at selected frequencies,"[1]; 1 μg/ml nocodazole, 450-μm-diameter tumor, proliferating shell",higher frequencies change relatively less than the lower frequencies
same,spectrogram fingerprint,"[1]; dose of 1 μg/ml, FIG. 34A-34D",significant enhancement of lower frequencies
"CC(=O)O[C@H]1C(=O)[C@@]2(C)[C@H]([C@H](OC(=O)c3ccccc3)[C@]3(O)C[C@H](OC(=O)[C@H](O)[C@@H](NC(=O)c4ccccc4)c4ccccc4)C(C)=C1C3(C)C)[C@]1(OC(C)=O)CO[C@@H]1C[C@@H]2O [Taxol, Paclitaxel]","suppression of the motility, time evolution under different doses",tumor spheroids; FIG. 13A-13C,significantly smaller suppression of the motility
same,dose-response plotted as a reaction velocity (suppression of cellular motion),tumor spheroids,weakest effect
same,spectrogram fingerprint,"[1]; dose of 1 μg/ml, FIG. 34A-34D",only a weak change
same,"high-frequency organelle activity, core-shell comparison",[1]; shell versus core spectrograms,appears only in the healthy shell and not in the core
C=C1[C@@H](C)[C@H]2[C@H](Cc3ccccc3)NC(=O)[C@]23[C@H](OC(C)=O)/C=C/[C@@](C)(O)C(=O)[C@@H](C)C/C=C/[C@H]3[C@@H]1O [cytochalasin D],brightness change of the healthy shell,[2],6%
same,brightness change of the necrotic core,[2],becomes dimmer
same,"correlation time, healthy shell",[2]; before dose 4.6 sec,7.2 s
same,"relative power spectral density, middle-frequency fluctuations, shell","[1]; 50 μg/ml cytochalasin D at room temperature, 10 μg/ml at physiological temperature",enhanced
same,spectrogram fingerprint,"[1]; dose of 1 μg/ml, FIG. 34A-34D","enhancement of the mid-frequencies for about 2 hours after application of the drug, followed by a shift of the spectral weight to lower frequencies"
same,"high-frequency organelle activity, core-shell comparison",[1]; shell versus core spectrograms,appears only in the healthy shell and not in the core; also recorded: appears strongly only in the shell and not in the core
O=CCCCC=O [glutaraldehyde],dynamic speckle at fixed depth,"tumor spheroids; tumor crosslinked with glutaraldehyde, depth about 300 microns, one frame per second",static speckle
O=C(O)CI [iodoacetate],"oscillations in the spectrogram, shell and core",[1],induces oscillations in the mid-to-low frequency range
same,"spectrogram of the shell, high frequencies associated with organelle transport",[1],strong increase
